Experimental data as given in patent US10422787B2, “System and method for single molecule detection” (ARIZONA BOARD OF REGENTS on behalf of ARIZONA STATE …, priority 2015, dated 2019).

Experiments:
Type in all cases: binding
[1] = system: cyclic RGD peptide; assay: STM break-junction measurement, Pd probe and substrate functionalized with cyclic RGD peptide; conditions: for event frequency, of all retractions: 10 nM protein, Vt=0.2V
Description: A Pd wire probe, etched to a sharp point and insulated to within a few hundred nm of its apex was used in an Agilent PicoSPM together with a Pd-coated substrate as described elsewhere. […] Probes and substrates were functionalized with cyclic RGD peptide (inset FIG. 14B) as described in Methods. Measurements were carried out in 1 mM phosphate buffer (pH=7.4) with the potential of the substrate controlled at a voltage Vr with respect to an Ag/AgCl reference. […] Integrin itself is electrochemically-inert, but the Pd surface has a rich electrochemistry. Cyclic voltammetry of a Pd surface functionalized with cyclic RGD peptide is shown in FIG. 14B, where a prominent cathodic peak (“HA”) is associated with hydrogen adsorption. […] In order to avoid both this cathodic peak and the onset of Pd oxidation at positive potentials, both electrodes were kept at potentials between 0 and 0.5V vs Ag/AgCl. The STM gap was set to an initial current of 4 pA ([…] conductance at Vt=0.2V, corresponding to a distance, Z0, of about 2 nm) and the probe was then slowly (0.17 nm/s) retracted. The tunnel current decayed rapidly (˜0.2 nm decay length—inset in FIG. 14E) in buffer alone. […] Many current points for αvβ3, exceed 0.1 nA (i.e., conductances >0.5 nS) at distances Z0+ΔZ>3 nm (FIG. 15A). Clearly these currents cannot arise from a tunneling process with β˜0.87 Å^−1 for which G0·e^−βx yields values smaller than 10^−16 S.
Table 1 summarizes the frequency with which these large current pulses are observed in STM measurements, showing also the effect of increasing bias. Large current events are barely seen below 0.1V, their frequency rising with increasing bias above this threshold. The experiments were repeated without a reference electrode, finding essentially identical results over the range of 0.1 to 0.5V (Table 1) presumably because the large-area substrate used in the STM experiments serves to stabilize surface potential somewhat.
The fraction in parenthesis corresponds to events that overflowed the current limit of the amplifier (11 nA). 0.5V bias approaches the potential for surface oxide formation of the Pd, but no significant oxidation currents were observed.
Functionalizing STM probes and substrates: The STM probes were etched from a 0.25 mm Pd wire (California Fine Wires) by an AC electrochemical etching method, and then insulated with high-density polyethylene, leaving an open apex of a few tens of nanometers in diameter. Before use, the probes were tested in 1 mM phosphate buffer (pH=7.4) at 0.5 V bias to ensure that the leakage current was <1 pA. For functionalization, the probe was gently cleaned using ethanol and water, respectively, and then dried with nitrogen flow. The probe was immersed in a 0.5 mg/mL peptide solution for ˜20 h. After that, the probe was taken out, rinsed with water, dried with nitrogen gas, and used immediately. Palladium substrates were prepared by depositing a 100 nm palladium film onto a 10 nm titanium adhesion layer coated onto a 750 μm thick silicon wafer using an electron-beam evaporator (Lesker PVD 75). The substrate was annealed with a hydrogen flame immediately before being functionalized by the same method as that for probe. Fourier transform infrared (FTIR) spectroscopy was used to characterize the functionalization. Pd substrates were also treated by UV- Ozone cleaner and H2 gas reduction (to remove PdO).
STM Measurements: Break junction measurements were carried out with a PicoSPM scanning probe microscope (Agilent Technologies). The Teflon liquid cells were cleaned in Piranha solution and then sonicated in Milli-Q water three times (Note that: the Piranha is highly corrosive and must be handled with extreme care). The current set point was 4 pA. Different sample bias was applied to the substrate as required. For better surface charge control, an Ag/AgCl with a salt bridge (10 mM KCl) was connected to the substrate. […]

[2] = system: cyclic RGD peptide; assay: Nanopore (approximately 12 nm) junction device functionalized with cyclic RGD peptide
Description: Accordingly, in some embodiments, the background signal corresponds to the number of molecules adsorbed on the electrodes. This can be substantiated by collecting signals from a device small enough to allow only one integrin molecule to be trapped. In such a device, experiments were performed where the electrode edges were exposed by drilling a nanopore of approximately 12 nm diameter through the junction device. The electrodes were functionalized again with the cyclic RGD peptide. […] However, when 1 nM αVβ3 integrin is added a signal is generated (FIG. 11). […] This is because there is room for only one molecule at a time in the device, and this confirms that, in some embodiments, the background current arises from adsorption of many molecules.

[3] = system: cyclic RGD peptide; assay: STM experiment, gold probe functionalized with RGD peptide over bare gold substrate; conditions: 100 nM protein, starting gap 2.7 nm
Text: Accordingly, in some embodiments, functionalizing just one of a pair of electrodes generates a unique electrical recognition signal for a corresponding molecule(s). To do this, a scanning tunneling microscope (STM) was used (see STM, FIG. 5A), where a gold probe 51 was functionalized with the RGD peptide 53 via the chemical interaction between the cysteine residue and the gold. The probe was positioned at a set point bias (V) and current (I) such that the apex of the probe was held approximately 2.7 nm above a bare gold substrate, 52. As the probe was pulled away an extra distance ΔZ from the surface, a decaying current could be observed during some of the experiments (e.g., feature 57 in FIG. 5B). However, in the absence of the αVβ3 integrin, no other features were observed, even if fairly high concentrations (e.g., 100 nM) of a protein such as BSA were added to the solution in the STM. Once 100 nM αVβ3 integrin 56 was added to the solution, a new feature appeared as a current peak away from the origin 58 in FIG. 5B.
In contrast to conventional tunneling signals, these signals peak when the probe is some distance away from the surface, signifying that the probe has captured a conductive particle.

[4] = Bias 0.1 V, Reference Ag/AgCl (0V)
[5] = Bias 0.2 V, Reference Ag/AgCl (0V)
[6] = Bias 0.5 V, Reference Ag/AgCl (0V)
[7] = Bias 0.5 V, Reference None (substrate floating)
[8] = many current points, at distances Z0+ΔZ>3 nm

Row | Substance | event frequency, of all retractions [1] | fraction of retractions that showed large current events [1, 4] | fraction of retractions that showed large current events ([1]; Bias 0.1 V, Reference None) | fraction of events that overflowed the current limit of the amplifier (11 nA) [1, 5] | fraction of retractions that showed large current events [1, 5] | fraction of events that overflowed the current limit of the amplifier (11 nA) ([1]; Bias 0.2 V, Reference None) | fraction of retractions that showed large current events ([1]; Bias 0.2 V, Reference None) | fraction of events that overflowed the current limit of the amplifier (11 nA) [1, 6] | fraction of retractions that showed large current events [1, 6] | fraction of events that overflowed the current limit of the amplifier (11 nA) [1, 7] | fraction of retractions that showed large current events [1, 7] | signal in nanopore device ([2]; 1 nM solution) | fraction of events that overflowed the current limit of the amplifier (11 nA) [1, 4] | fraction of events that overflowed the current limit of the amplifier (11 nA) ([1]; Bias 0.1 V, Reference None) | conductance [1, 8] | peak current [1, 8] | current peak features on probe withdrawal [3] | fluctuating current component ([2]; 1 nM)
1 | α4β1: homologous, weakly-binding integrin protein used as a control | 12% | 0.01 | 0 | 0 | 0.15 | 0 | 0.12 | 0.01 | 0.3 | 0 | 0.24 | no signals are generated | – | – | – | – | – | –
2 | αvβ3: ~200 kD αVβ3 extracelluar domain of human integrin, target protein bound by cyclic RGD peptide | 25% | 0.07 | 0.06 | 0.01 | 0.32 | 0.03 | 0.26 | 0.2 | 0.58 | 0.09 | 0.56 | – | 0 | 0 | > 0.5 nS | exceed 0.1 nA | many tens of picoamps | about 0.2 nA
